Measurements: US4550186A, “Binuclear copper (II) carboxylates formed from amine-carboxyboranes” (Duke University, priority 1983, dated 1985)

What was measured:
Holtzman male rats = assay: Cholesterol absorption study; assay type: in vivo, rat; conditions: rats treated 14 days, over a 24-hr period
Protocol: Holtzman male rats (~400 g) were administered the test drug orally for 14 days at 10 mg/kg/day. On day 13, 10 μCi of 1,2-^3 H(N)-cholesterol (40.7 Ci/mmol) was administered to the rat orally. Twenty-four hours later, the blood was collected and the serum separated by centrifugation. Both the serum and the precipitate were counted.

Appetite / food intake = conditions: in vivo
[1] = test system: protein synthesis of Ehrlich ascites cells; assay: In vivo leucine incorporation into protein; set-up: species or system mouse
Protocol: (§1) CF1 male mice (~30 g) were implanted with 2×10^6 Ehrlich ascites tumor cells, intraperitoneally on Day 0. Compound I was suspended by homogenation in 0.05% polysorbate.80-water and administered intraperitoneally at 10 and 20 mg/kg for 9 days to determine its effectiveness for inhibition of tumor growth. Mice were sacrificed on Day 10, and the ascites fluid was collected from the peritoneal cavity. The volume and ascrit (packed cell volume) were determined for each animal and the percent inhibition of tumor growth was calculated. For the metabolic studies, mice were treated on Days 8 and 9 with 10 mg/kg of Compound I, intraperitoneally. The animal was sacrificed on Day 10 and the ascites fluid harvested. […]
For in vivo studies, incorporation of thymidine into deoxyribonucleic acid was determined by the method of Chae et al [Proc. Am. […] The deoxyribonucleic acid was isolated and the tritium content was determined in a toluene based scintillation fluid. The deoxyribonucleic acid concentration was determined by the diphenylamine reaction using calf thymus deoxyribonucleic acid as a standard. Uridine incorporation into ribonucleic acid was determined using 10 μCi of 5,6-^3 H-uridine (22.4 Ci/mmol). […] Leucine incorporation into protein was determined by the method of Sartorelli [Biochem. Biophys. […] Protein content was determined by the Lowry procedure using bovine serum albumin as a standard.

[2] = test system: ribonucleic acid synthesis of Ehrlich ascites cells; assay: In vitro whole cell incorporation: ribonucleic acid synthesis; assay type: cell-based, mouse; conditions: preliminary, 60 min, read-out: ID50, ribonucleic acid synthesis
Protocol: (§2) CF1 male mice (~30 g) were implanted with 2×10^6 Ehrlich ascites tumor cells, intraperitoneally on Day 0. Compound I was suspended by homogenation in 0.05% polysorbate.80-water and administered intraperitoneally at 10 and 20 mg/kg for 9 days to determine its effectiveness for inhibition of tumor growth. Mice were sacrificed on Day 10, and the ascites fluid was collected from the peritoneal cavity. The volume and ascrit (packed cell volume) were determined for each animal and the percent inhibition of tumor growth was calculated. For the metabolic studies, mice were treated on Days 8 and 9 with 10 mg/kg of Compound I, intraperitoneally. The animal was sacrificed on Day 10 and the ascites fluid harvested. The in vitro metabolic studies were performed at […] final concentration of Compound I.
In vitro incorporation of ^3 H-thymidine, ^3 H-uridine, or ^3 H-leucine was determined using 10^6 Ehrlich ascites cells, 1 μCi labeled precursor, minimum essential medium and varying final concentrations of drug from 0.25-1.0 mM. The tubes were incubated at 37° C. for 60 min and inactivated by trichloroacetic acid. The acid insoluble labeled deoxyribonucleic acid was collected on GF/F glass filter discs and ribonucleic acid and protein were precipitated on nitrocellulose filters by vacuum suction. Results are expressed as dpm of incorporated precursor per hour per 10^6 cells.

[3] = test system: formate incorporation into purine; assay: In vitro formate incorporation into purine (supernatant fraction); assay type: biochemical, mouse; conditions: read-out: ID50, formate incorporation into purine
Protocol: as §1, with “intraperitoneally.” for “intraperitoneally. The animal was sacrificed on Day 10 and the ascites fluid harvested.”
Carbamyl phosphate synthetase activity was determined using the reaction medium of Kalman et al [Am. […] Citrulline formed from ornithine was measured at 490 nm by the method of Archibald [J. Biol. Chem., 156, 121 (1944)]. […] The ^14 CO2 generated in 15 min was trapped in 1M KOH and counted. Thymidylate synthetase activity was determined using a post-mitochondrial supernatant (9000 g×10 min) and 5 μCi of 5-^3 H-deoxyuridine monophosphate (14 Ci/mmol) according to the method of Kampf et al [ J. Med. Chem., 19, 903 (1976)]. ^14 C-Formate incorporation into purines was determined by the method of Spassova et al [Biochem. Pharmacol., 25, 923 (1976)] using 0.5 μCi of ^14 C-formic acid (52.0 mCi/mmol). […] The Rf value for xanthine monophosphate was scraped and counted. […]

deoxyribonuclease = assay: In vitro deoxyribonuclease activity; assay type: biochemical, mouse; conditions: read-out: ID50, Deoxyribonuclease activity
Protocol: as §2

[4] = test system: Ehrlich ascites lysate protein synthesis; assay: Initiation/elongation of Ehrlich ascites lysate protein synthesis; assay type: biochemical, mouse; conditions: compared with pyrocatechol violet and emetine
Protocol: An in vitro method was used to determine if compound I was an initiation or an elongation inhibitor of Ehrlich ascites lysate protein synthesis by comparing inhibition with known standards, pyrocateochol violet and emetine, using 1 μCi ^3 H-leucine (24.7 Ci/mmol). The reaction medium was spotted on Whatman #1 filter paper disks, which after drying were treated for 10 min in boiling 5% trichloroacetic acid, for 10 min in cold 5% trichloroacetic acid and washed with cold 5% trichloroacetic acid, ether/ethanol (4:1) and ether. The disks were dried and counted.

## {Cu[(CH3)3 N.BH2 CO2 ]2.(CH3)3 N.BH2 COOH} [Compound I]
Holtzman male rats
  adsorption of orally administered 3H-cholesterol reduced: 85%
Appetite / food intake
  Appetite of the animal: reduced
[1]; 10 mg/kg/day I.P. on Days 8 and 9
  3H-Leucine incorporation into protein: 48 ± 6 % Control
[1]; 10 day Ehrlich ascites cells
  Leucine incorporation into protein inhibited: 52%
[2]
  IC50: 1820 µM
[3]
  IC50: 1710 µM
deoxyribonuclease
  IC50: 682 µM
[4]
  inhibition of protein synthesis of Ehrlich ascites lysates (initiation vs elongation): lag of several minutes before inhibition is observed
